Measured values taken from US12403118B1, “Cancer treatments using modified fatty acids and the carriers to administer them” (Zetagen Therapeutics, Inc., priority 2025, dated 2025).
Values belong to the compound of their own block, whether it stands above or below them.

Tests used:
[1] = test system: MCF7 breast cancer cells; experiment: MTT assay of cell proliferation; assay type: cell-based; conditions: relative to no treatment
Experimental: The MTT Assay of Cell Proliferation: The MTT assay provides a measurement of cell proliferation (FIG. 5) in the MCF7 breast cancer cells. […] Experiments were conducted using three independent replicates and evaluated using a 1-way ANOVA. Relative to Controls at 24-hours (FIG. 5A), there was between a 6.9% and 11.94% decrease in cell number (**=p<0.0034, ***=p<0.0007, and ****=p<0.0001). Relative to Control cultures at 72-hours (FIG. 5B), there was between a 15.4% and 50.2% decrease in cell number (****=p<0.0001).
Combination Therapy Assessed Using the MTT Assay of Cell Proliferation: The MTT assay provides a measurement of cell proliferation (FIG. 5) in the MCF7 breast cancer cells. […] Control cultures were treated with 50-nM of Tomoxifen or 10-nM of Abemaciclib.

[2] = test system: Phosphoglycerate kinase; conditions: substrate Mg-ATP; cited from earlier work
[3] = Solubility in heated non-polar solvents and fatty acid solutions; assay type: physicochemical; conditions: heated to at least 90° C.; for solubility in fatty acid solutions: oleic acid, linoleic acid, vegetable oil, olive oil, canola oil, castor oil; for solubility in non-polar solvents: toluene, xylene, n-octane, cyclohexane, hexane, chloroform, acetonitrile, ether
[4] = target: TRPA1 channels (Homo sapiens, UniProt O75762); conditions: 20-μM Ca^2+; cited from earlier work
Chain of TRPA1 channels (O75762 whole entry): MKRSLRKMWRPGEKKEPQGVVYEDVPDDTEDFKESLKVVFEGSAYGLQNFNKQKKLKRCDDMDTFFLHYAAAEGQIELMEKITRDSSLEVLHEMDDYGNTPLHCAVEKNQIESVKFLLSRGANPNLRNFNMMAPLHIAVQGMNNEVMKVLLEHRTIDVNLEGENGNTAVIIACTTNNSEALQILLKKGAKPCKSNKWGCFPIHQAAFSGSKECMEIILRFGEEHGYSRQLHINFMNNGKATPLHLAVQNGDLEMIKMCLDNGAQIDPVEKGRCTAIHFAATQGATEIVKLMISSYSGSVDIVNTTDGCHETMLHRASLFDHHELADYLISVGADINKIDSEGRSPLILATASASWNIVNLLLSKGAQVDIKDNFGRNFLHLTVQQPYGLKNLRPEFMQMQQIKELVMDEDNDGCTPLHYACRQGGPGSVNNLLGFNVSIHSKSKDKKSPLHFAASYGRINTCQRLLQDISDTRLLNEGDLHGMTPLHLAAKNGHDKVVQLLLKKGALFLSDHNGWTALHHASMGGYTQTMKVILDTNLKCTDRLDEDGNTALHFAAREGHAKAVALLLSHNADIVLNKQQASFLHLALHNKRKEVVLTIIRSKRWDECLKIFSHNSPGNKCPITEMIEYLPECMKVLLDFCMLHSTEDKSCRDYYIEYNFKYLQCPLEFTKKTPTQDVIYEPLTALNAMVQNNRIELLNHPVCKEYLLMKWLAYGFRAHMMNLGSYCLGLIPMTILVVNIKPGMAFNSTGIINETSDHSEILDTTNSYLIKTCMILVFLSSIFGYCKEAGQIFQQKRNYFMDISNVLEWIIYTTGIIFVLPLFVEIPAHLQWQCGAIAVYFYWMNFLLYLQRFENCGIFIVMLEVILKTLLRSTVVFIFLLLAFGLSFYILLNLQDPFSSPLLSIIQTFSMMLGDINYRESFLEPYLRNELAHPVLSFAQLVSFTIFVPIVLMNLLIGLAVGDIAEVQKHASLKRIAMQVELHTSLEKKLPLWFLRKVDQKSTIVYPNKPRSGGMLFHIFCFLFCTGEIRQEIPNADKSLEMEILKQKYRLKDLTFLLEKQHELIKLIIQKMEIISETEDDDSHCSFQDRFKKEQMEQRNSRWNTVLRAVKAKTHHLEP

Compound: CCN1CCN(Cc2ccc(Nc3ncc(F)c(-c4cc(F)c5nc(C)n(C(C)C)c5c4)n3)nc2)CC1 [Abemaciclib]
decrease in cell number ([1]; MCF7, 24-hours, 10-nM Abemaciclib): 10.2% | decrease in cell number ([1]; MCF7, 72-hours, 10-nM Abemaciclib): 26.4%

Compound: Nc1ncnc2c1ncn2[C@@H]1O[C@H](COP(=O)(O)OP(=O)([O-])OP(=O)([O-])O)[C@@H](O)[C@H]1O.[Mg+2] [Mg-ATP]
K-value [2]: 0.073 mM

Compound: CC/C(=C(\c1ccccc1)c1ccc(OCCN(C)C)cc1)c1ccccc1 [Tamoxifen]
decrease in cell number ([1]; MCF7, 24-hours, 50-nM Tamoxifen): 54% | decrease in cell number ([1]; MCF7, 72-hours, 50-nM Tamoxifen): 80.3%

Compound: CCCCCCCCC(OC(C)=O)C(CCCCCCCC(=O)O)OC(C)=O (stereo not shown) [lanthanum (III) tri 9,10-diacetoxy octadecanoate]
solubility in fatty acid solutions [3]: soluble | solubility in non-polar solvents [3]: soluble

solubility in fatty acid solutions [3]: soluble | solubility in non-polar solvents [3]: soluble
Compound: CCCCCCCCCCCC(=O)O [lanthanum (III) tridodeconoate]

Compound: [La] [lanthanum]
IC50 [4]: 54 µM
